Source: patent US7947854B2, “Bis-cationic compounds and use thereof” (The University of Sydney, priority 2003, dated 2011)
Marks after values point to notes of the source that are not given here.

Experiments:
[1] = test system: cytosolic phospholipase B (PLB activity); test: Radiometric assay, cytosolic PLB activity; type: biochemical, Cryptococcus neoformans H99; details: pH 4
Protocol: Fungal isolates and media. […] Isolate H99 was kindly supplied by Dr. Gary Cox (Duke University Medical Center, Durham, N.C., USA), and subcultured onto Sabouraud dextrose agar (SDA) at 30° C.
Cellular disruption to prepare membrane and cytosolic fractions. The cell pellet from the preparation of the supernatant, above, was also frozen at −70° C. After washing twice with imidazole buffer, it was disrupted in the presence of a protease inhibitor cocktail (P 8215 for fungal and yeast cells; 4-(2-aminoethyl)benzenesulfonyl fluoride hydrochloride, 100 mM, 1,10-phenanthroline, 500 mM, pepstatin A, 2.2 mM, E-64, 1.4 mM; Sigma) in a MiniBeadbeater-8 Cell Disrupter (MBB-8; Daintree Scientific, Tasmania, Australia) for three cycles of 1 min, alternating with a 1 min cooling period on ice. The homogenate was centrifuged at 14,000 g for 15 min to obtain the membrane (pellet) and the cytosolic (supernatant) fractions.
Radiometric assay method for phospholipases. Enzyme activities were measured as described previously in a final volume of 125 μL at 37° C. For the determination of secreted PLB activity, carrier dipalmitoyl phosphatidylcholine (DPPC, final concentration 800 μM) and 1,2-di[1-^14C] palmitoyl phosphatidylcholine (20,000 dpm) were dried under nitrogen and suspended in 125 mM imidazole acetate buffer (assay buffer, pH 4.0) by sonication using a Branson 450 sonifier. The reaction time was 22 min, using 1 μg total protein and PLB activity was determined by the rate of decrease of the radiolabelled PC substrate, with appearance of the label in free fatty acid. This assay also simultaneously allows for the determination of phospholipase A, C and D activities. These activities were measured by the appearance of radiolabel from PC in Lyso PC, diacylglycerol and phosphatidic acid, respectively.
All reactions were terminated by adding 0.5 mL of chloroform:methanol (2:1 v/v). The reaction products were extracted by the method as disclosed in Bligh, E. C. and W. J. Dyer. 1959 ‘A rapid method of total lipid extraction and purification.’ Can. J. Biochem. Physiol. 37:911-917, separated by TLC and quantified as previously described. In the case of PLC activity, the TLC plates were developed in petroleum ether (BP 60-80° C.): diethyl ether: acetic acid (90:15:1, v/v/v) instead of chloroform:methanol:water (65:25:4, v/v/v).
All experiments were carried out in duplicate or triplicate. The effects of pH on the various phospholipase activities were measured using 50 mM final concentration of imidazole-acetate buffer (pH range 3-5), MES buffer (pH range 6-8) and glycine buffer (pH 9-10). Controls for non-enzymic breakdown of substrates were included at all pH values. Cations, Triton X-100 and metal chelators were made up as stock solutions in water and diluted to the final concentration in the appropriate assay buffer.
Preparation of inhibitors and use in assays. The following compounds were tested (for structures, see FIG. 2): compound 1, 1,12-bis(tributylphosphonium)dodecane dibromide (Fluka AG, Buchs, Switzerland); compound 2, 1,10-bis(tributylammonium)-decane dibromide; compound 3, 1,12-bis(tributylammonium)do-decane dibromide (both synthesised in-house); compound 4, 1,10-bis(trimethylammonium)decane dibromide [“decamethonium”] (Sigma, St. Louis Mo., USA). All compounds were prepared as stock solutions of 700 μM in assay buffer containing 5 mM EDTA, which was then diluted serially with buffer to obtain solutions of 70, 7, 0.7 and 0.07 μM. In each assay, 45 μL of these solutions was used, and the final volume of 125 μL was made up of substrate, enzyme and buffer. The radiometric assay was carried out as above.

dermatophyte isolates = test: Susceptibility of dermatophytes, results stated over all isolates; type: cell-based; details: read-out: mean MICs across all the isolates
Protocol: Isolates were tested using the method described in the National Committee for Clinical Laboratory Standards (NCCLS) document M38-P for filamentous fungi, with dermatophyte specific modifications described by Fernández-Torres et al, Current topics in Medical Mycology, 14-19 Feb. 1999.
Five dermatophyte isolates were, namely; T. rubrum, T. mentagrophytes, T. tonsurans, M. canis and M. gypseum, all of which produce lipases and some, phospholipase. These isolates were tested by the broth microdilution method according to NCCLS document M38-P, for activity against selected antifungal agents. In addition, ten randomly selected isolates of T. tonsurans were also tested. All isolates were maintained on SDA at 28° C. Candida parapsilosis (ATCC 20019) was used as the reference control is organism. […]
Fungal cultures were subcultured onto Potato Dextrose Agar and grown at 28° C. for 7-10 days. […] Inoculum quantification was performed by plating 100 μl of the 1:1000 dilution of the adjusted inoculum on SDA plates, incubated at 28° C., and after 7 days of incubation, the colonies were counted.
Testing was based on NCCLS M38-P document for testing filamentous moulds. […] Plates were incubated at 28° C. for 7 days, and read at 3 days and 7 days of incubation. […]
Growth in microtitre trays were read by visual inspection by using an illuminated-reversed mirror. […]

SMILES | % Inhibition PLB, Cytosolic Enzyme ([1]; 2.5 μM) [%] | % Inhibition PLB, Cytosolic Enzyme ([1]; 25 μM) [%] | % Inhibition PLB, Cytosolic Enzyme ([1]; 250 μM) | MIC (dermatophyte isolates) [µg/mL]
CCCC[P+](CCCC)(CCCC)CCCCCCCCCCCC[P+](CCCC)(CCCC)CCCC [Compound 1, 1,12-bis(tributylphosphonium)dodecane dibromide] | 0 | 0 | 41.3* % | 
CCCC[N+](CCCC)(CCCC)CCCCCCCCCCCC[N+](CCCC)(CCCC)CCCC [Compound 3, 1,12-bis(tributylammonium)do-decane dibromide] |  |  |  | 2.62 to 7.61
